{"source": "patent US11324962B2", "about": "“Magnetic field enhancement of chemotherapy for tumor treatment” (priority 2018, dated 2022)", "origin": "cited, not measured here", "details": "in vivo", "data": [{"smiles": "O=C1[O][Pt]2([NH][C@@H]3CCCC[C@H]3[NH]2)[O]C1=O", "note": "[oxaliplatin]", "values": [{"measurement": "biological half-life", "value": 25, "unit": "minutes"}]}]}
